≈ marks a conversion by molar mass, not a printed value.
Columns and labels:
[1] = tested on: Lactobacillus plantarum Inducia DSM 21379; test: Antibiotic resistance, E-test MIC; assay type: cell-based; settings: for MIC: Lactiplantibacillus plantarum, DSM21379, read-out: MIC (minimal inhibitory concentration); for MIC (minimal inhibitory concentration): E-test strips, L. plantarum Inducia DSM 21379
Description: Method. Lactobacillus plantarum Inducia DSM 21379 was tested using antibiotic strips of the E-test (AB Biodisk, Solna).

[2] = tested on: Control strain L. plantarum DSM 21380; test: Antibiotic resistance, E-test MIC, control strain; assay type: cell-based, Lactobacillus plantarum; settings: for MIC: Lactiplantibacillus plantarum, DSM21380, E-test strips, read-out: MIC (minimal inhibitory concentration); for MIC (minimal inhibitory concentration): E-test strips
[3] = in vivo, po; cited from earlier work

CC1(C)S[C@@H]2[C@H](NC(=O)[C@H](N)c3ccccc3)C(=O)N2[C@H]1C(=O)O [Ampicillin]
MIC [1]: 0.19 mg/L (≈ 0.544 µM)
MIC [2]: 0.25 mg/L (≈ 0.715 µM)

O=C(N[C@H](CO)[C@H](O)c1ccc([N+](=O)[O-])cc1)C(Cl)Cl [Chloramphenicol]
MIC [1]: 2 mg/L (≈ 6.19 µM)
MIC [2]: 2 mg/L (≈ 6.19 µM)

CCC[C@@H]1C[C@@H](C(=O)N[C@@H]([C@H]2O[C@H](SC)[C@H](O)[C@@H](O)[C@H]2O)[C@H](C)Cl)N(C)C1 [Clindamycin]
MIC [1]: 0.016 mg/L (≈ 0.0376 µM)
MIC [2]: 0.032 mg/L (≈ 0.0753 µM)

CC[C@H]1OC(=O)[C@H](C)[C@@H](O[C@H]2C[C@@](C)(OC)[C@@H](O)[C@H](C)O2)[C@H](C)[C@@H](O[C@@H]2O[C@H](C)C[C@H](N(C)C)[C@H]2O)[C@](C)(O)C[C@@H](C)C(=O)[C@H](C)[C@@H](O)[C@]1(C)O [Erytromycin]
MIC (minimal inhibitory concentration) [1]: 0.25 mg/L (≈ 0.341 µM)
MIC (minimal inhibitory concentration) [2]: 0.19 mg/L (≈ 0.259 µM)

NCCCCN [Putrescine]
consumed amount absorbed from intestine into bloodstream [3]: 20%

[H]/N=C(/N)N[C@H]1[C@H](O)[C@@H](O)[C@H](O[C@@H]2O[C@@H](C)[C@](O)(C=O)[C@H]2O[C@@H]2O[C@@H](CO)[C@H](O)[C@@H](O)[C@@H]2NC)[C@@H](N/C(N)=N\[H])[C@@H]1O [Streptomycin]
MIC [1]: 6 mg/L (≈ 10.3 µM)
MIC [2]: 16 mg/L (≈ 27.5 µM)

CN(C)[C@@H]1C(O)=C(C(N)=O)C(=O)[C@@]2(O)C(O)=C3C(=O)c4c(O)cccc4[C@@](C)(O)[C@H]3C[C@@H]12 [Tetracycline]
MIC [1]: 6 mg/L (≈ 13.5 µM)
MIC [2]: 8 mg/L (≈ 18 µM)

Cipro/ofloxacin
MIC (minimal inhibitory concentration) [1]: 32 mg/L
MIC (minimal inhibitory concentration) [2]: 32 mg/L

Gentamicin
MIC (minimal inhibitory concentration) [1]: 1 mg/L
MIC (minimal inhibitory concentration) [2]: 1.5 mg/L

Reference: US20110274789A1, “ISOLATED LACTOBACILLUS PLANTARUM STRAIN INDUCIA DSM 21379 AS PROBIOTIC THAT ENHANCES NATURAL IMMUNITY AND FOOD PRODUCTS AND MEDICINAL PREPARATIONS COMPRISING IT” (priority 2008, published 2011)
